What all share (assay type): biochemical
The target of assay [1] is T1, Flt3 (FMS-like tyrosine kinase-3) (Homo sapiens, UniProt P36888).
T1 sequence (P36888 27-993): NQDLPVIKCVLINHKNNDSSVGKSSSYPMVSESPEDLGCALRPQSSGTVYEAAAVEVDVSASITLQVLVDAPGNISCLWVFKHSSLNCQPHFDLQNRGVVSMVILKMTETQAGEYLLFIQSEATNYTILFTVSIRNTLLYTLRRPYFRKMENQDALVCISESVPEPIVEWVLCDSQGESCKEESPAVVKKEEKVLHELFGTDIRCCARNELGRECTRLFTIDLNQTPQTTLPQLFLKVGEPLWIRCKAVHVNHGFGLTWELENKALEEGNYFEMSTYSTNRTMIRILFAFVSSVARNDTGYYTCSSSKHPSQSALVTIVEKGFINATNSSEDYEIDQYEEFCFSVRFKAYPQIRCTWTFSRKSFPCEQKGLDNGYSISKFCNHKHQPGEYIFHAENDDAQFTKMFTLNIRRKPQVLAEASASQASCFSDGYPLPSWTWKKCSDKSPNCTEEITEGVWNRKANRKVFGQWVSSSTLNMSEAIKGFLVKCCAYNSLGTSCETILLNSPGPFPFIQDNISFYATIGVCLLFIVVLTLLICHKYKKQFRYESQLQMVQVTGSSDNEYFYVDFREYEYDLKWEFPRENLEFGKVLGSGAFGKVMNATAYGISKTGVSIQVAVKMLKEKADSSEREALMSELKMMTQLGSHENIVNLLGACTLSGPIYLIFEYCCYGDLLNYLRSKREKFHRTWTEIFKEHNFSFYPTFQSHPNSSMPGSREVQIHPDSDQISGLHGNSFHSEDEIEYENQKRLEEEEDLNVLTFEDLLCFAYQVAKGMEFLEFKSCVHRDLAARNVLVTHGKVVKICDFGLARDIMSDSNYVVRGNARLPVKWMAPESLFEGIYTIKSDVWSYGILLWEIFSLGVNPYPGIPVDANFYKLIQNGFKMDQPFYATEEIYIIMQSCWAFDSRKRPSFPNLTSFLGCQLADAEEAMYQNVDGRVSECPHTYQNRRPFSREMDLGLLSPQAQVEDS
In words: Kinase assay (radioactive phosphate incorporation), Flt3. The following applies: pIC50 is -log(IC50, M), read-out: Kinase Inhibition pIC50 Flt3 (converted). Summed up:
(§1)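 Recombinant active enzyme (2-4 μg) with suitable polypeptide substrate in 25 mM β-glycerophosphate, 20 mM MOPS, 5 mM EGTA, 1 mM DTT, 1 mM […], pH 7.4. Started with 15 mM MgCl2/100 μM ATP plus [γ-32P]-ATP, incubated at 30° C; 32P incorporation captured on filter plates and counted by scintillation.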

The target of assay [2] is CDK2-cyclin A (Homo sapiens, UniProt P24941). In words: Kinase assay (radioactive phosphate incorporation), CDK2-cyclin A. Conditions: read-out: Kinase Inhibition pIC50 CDK2-cyclin A (converted). The procedure:
(§2) Kinase assays. The compounds of the invention above were investigated for their ability to inhibit the enzymatic activity of various protein kinases (Table 2). This was achieved by measurement of incorporation of radioactive phosphate from ATP into appropriate polypeptide substrates. Recombinant protein kinases and kinase complexes were produced or obtained commercially. Assays were performed using 96-well plates and appropriate assay buffers (typically 25 mM β-glycerophosphate, 20 mM MOPS, 5 mM EGTA, 1 mM DTT, 1 mM […], pH 7.4), into which were added 2-4 μg of active enzyme with appropriate substrates. The reactions were initiated by addition of Mg/ATP mix (15 mM MgCl2+100 μM ATP with 30-50 kBq per well of [γ-^32P]-ATP) and mixtures incubated as required at 30° C. Reactions were stopped on ice, followed by filtration through p81 filterplates or GF/C filterplates (Whatman Polyfiltronics, Kent, UK). After washing 3 times with 75 mM aq orthophosphoric acid, plates were dried, scintillant added and incorporated radioactivity measured in a scintillation counter (TopCount, Packard Instruments, Pangbourne, Berks, UK). Compounds for kinase assay were made up as 10 mM stocks in DMSO and diluted into 10% DMSO in assay buffer.

In assay [3] the target is CDK4-cyclin D1 (Homo sapiens, UniProt P11802). As to the kind of experiment: Kinase assay (radioactive phosphate incorporation), CDK4-cyclin D1. The following applies: read-out: Kinase Inhibition pIC50 CDK4-cyclin D1 (converted). As for the experimental part: as §2
CDK4-cyclin D1, sequence (P11802 whole entry): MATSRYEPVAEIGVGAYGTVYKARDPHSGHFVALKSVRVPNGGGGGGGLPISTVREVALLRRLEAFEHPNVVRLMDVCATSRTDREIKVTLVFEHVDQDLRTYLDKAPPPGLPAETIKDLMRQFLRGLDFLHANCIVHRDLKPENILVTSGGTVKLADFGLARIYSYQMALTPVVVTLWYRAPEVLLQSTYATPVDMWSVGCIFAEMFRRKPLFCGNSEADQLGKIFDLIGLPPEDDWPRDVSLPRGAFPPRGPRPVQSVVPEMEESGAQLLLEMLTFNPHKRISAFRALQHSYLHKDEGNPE
CDK4-cyclin D1, sequence (P24385 whole entry partner): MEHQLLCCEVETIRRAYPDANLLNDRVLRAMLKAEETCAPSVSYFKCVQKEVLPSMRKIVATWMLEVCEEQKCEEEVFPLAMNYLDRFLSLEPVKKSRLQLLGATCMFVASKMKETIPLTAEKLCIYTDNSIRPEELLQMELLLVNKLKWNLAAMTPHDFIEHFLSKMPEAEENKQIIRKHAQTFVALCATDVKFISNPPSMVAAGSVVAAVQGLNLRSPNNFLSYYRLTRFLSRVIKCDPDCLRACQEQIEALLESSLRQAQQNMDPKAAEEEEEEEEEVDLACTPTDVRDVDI
Assay [4] addresses CDK7/cyclin H (Homo sapiens, UniProt P50613). As to the kind of experiment: CDK 7 assay (CTD peptide substrate). The following applies: read-out: Kinase Inhibition pIC50 CDK7-cyclin H (converted). The essentials: (§3)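 Recombinant human kinase/cyclin complex (0.5-2 μg) with biotinylated CTD heptapeptide-repeat substrate and test compound, 45 min at 30° C in MOPS pH 7.2 buffer with 15 mM MgCl2 and 100 μM ATP traced with [γ-32P]ATP. Avidin added, P81 filter capture, phosphoric acid washes, scintillation counting of 32P incorporation.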

Assay [5] concerns the target CDK9/cyclin T1 (Homo sapiens, UniProt P50750). In words: CDK 9 assay (CTD peptide substrate). Conditions: read-out: Kinase Inhibition pIC50 CDK9-cyclin T1 (converted). The essentials:
as §3

In assay [6] the target is CDK2-cycline E (Homo sapiens, UniProt P24941). In words: Kinase assay (radioactive phosphate incorporation), CDK2-cyclin E. Conditions: read-out: Kinase Inhibition pIC50 CDK2-cycline E (converted). The essentials: as §1
Assay [7] concerns the target T2, Aurora A kinase (Homo sapiens, UniProt O14965).
T2 construct: purchased
T2 sequence (O14965 1-403): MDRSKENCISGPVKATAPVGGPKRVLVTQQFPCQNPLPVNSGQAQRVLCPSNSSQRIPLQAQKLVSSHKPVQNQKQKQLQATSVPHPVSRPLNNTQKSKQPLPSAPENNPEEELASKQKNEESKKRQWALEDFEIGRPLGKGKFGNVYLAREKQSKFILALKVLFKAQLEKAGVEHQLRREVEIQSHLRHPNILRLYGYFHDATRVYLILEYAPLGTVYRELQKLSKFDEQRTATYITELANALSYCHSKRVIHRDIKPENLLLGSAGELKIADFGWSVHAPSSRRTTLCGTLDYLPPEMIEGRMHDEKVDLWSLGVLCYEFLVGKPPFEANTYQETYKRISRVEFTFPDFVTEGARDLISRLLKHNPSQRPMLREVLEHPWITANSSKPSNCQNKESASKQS
As to the kind of experiment: Aurora-A (human) kinase assay (Kemptide substrate). The following applies: pIC50 is -log(IC50, M); 15 μM ATP; read-out: Kinase Inhibition pIC50 Aurora A kinase (converted). The essentials: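 Radiometric filter-binding assay: commercial aurora-A kinase (5-10 ng) with 200 μM Kemptide in MOPS/EDTA pH 7.0, started with 10 mM Mg acetate and 15 μM ATP plus [γ-33P]-ATP. Incubated 40 min at room temperature, stopped with phosphoric acid, incorporated 33P counted by scintillation.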

For assay [8], the target named is CDK1-cyclin B (Homo sapiens, UniProt P06493). As to the kind of experiment: Kinase assay (radioactive phosphate incorporation), CDK1-cyclin B. Conditions: read-out: Kinase Inhibition pIC50 CDK1-cyclin B (converted). As for the experimental part:
as §2

SMILES strings stand for the structures.

CDK1-cyclin B, sequence (P06493 whole entry): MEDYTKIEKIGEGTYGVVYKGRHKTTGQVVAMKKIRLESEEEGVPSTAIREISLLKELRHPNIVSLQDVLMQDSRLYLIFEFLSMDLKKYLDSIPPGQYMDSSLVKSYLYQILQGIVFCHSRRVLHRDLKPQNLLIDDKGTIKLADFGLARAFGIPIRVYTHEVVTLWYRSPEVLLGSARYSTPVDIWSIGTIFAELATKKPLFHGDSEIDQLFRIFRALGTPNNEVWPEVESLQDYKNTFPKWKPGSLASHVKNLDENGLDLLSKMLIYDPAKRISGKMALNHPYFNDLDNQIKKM
CDK1-cyclin B, sequence (P14635 whole entry partner): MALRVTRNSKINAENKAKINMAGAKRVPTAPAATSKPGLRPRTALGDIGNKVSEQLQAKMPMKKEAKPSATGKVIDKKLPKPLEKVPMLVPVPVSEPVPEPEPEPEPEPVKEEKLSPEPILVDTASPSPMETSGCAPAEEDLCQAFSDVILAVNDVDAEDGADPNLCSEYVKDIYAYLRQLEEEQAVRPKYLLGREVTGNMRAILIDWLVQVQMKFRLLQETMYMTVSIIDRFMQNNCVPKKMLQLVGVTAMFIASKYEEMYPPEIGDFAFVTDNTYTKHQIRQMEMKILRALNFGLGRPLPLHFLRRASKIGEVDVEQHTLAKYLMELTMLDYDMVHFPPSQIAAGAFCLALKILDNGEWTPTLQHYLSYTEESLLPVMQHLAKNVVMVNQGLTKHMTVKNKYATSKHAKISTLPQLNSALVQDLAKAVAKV
CDK7/cyclin H, sequence (P50613 whole entry): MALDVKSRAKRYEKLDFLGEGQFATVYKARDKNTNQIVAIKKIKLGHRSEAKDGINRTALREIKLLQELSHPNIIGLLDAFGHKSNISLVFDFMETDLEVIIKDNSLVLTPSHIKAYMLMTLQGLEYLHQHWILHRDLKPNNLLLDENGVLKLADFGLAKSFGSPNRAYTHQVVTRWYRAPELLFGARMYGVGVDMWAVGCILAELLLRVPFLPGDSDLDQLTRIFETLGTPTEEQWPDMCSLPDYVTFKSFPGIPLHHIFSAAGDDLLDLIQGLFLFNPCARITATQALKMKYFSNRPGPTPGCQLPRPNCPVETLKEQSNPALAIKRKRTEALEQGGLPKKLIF
CDK7/cyclin H, sequence (P51946 whole entry partner): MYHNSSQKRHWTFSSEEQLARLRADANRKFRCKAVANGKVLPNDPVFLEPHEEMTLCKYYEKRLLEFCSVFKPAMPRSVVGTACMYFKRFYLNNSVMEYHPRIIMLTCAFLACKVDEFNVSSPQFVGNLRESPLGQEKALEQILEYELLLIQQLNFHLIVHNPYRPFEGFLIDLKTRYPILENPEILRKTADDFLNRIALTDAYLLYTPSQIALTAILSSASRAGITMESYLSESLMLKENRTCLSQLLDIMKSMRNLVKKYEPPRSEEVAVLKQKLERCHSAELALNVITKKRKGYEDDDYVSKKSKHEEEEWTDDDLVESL
CDK9/cyclin T1, sequence (P50750 whole entry): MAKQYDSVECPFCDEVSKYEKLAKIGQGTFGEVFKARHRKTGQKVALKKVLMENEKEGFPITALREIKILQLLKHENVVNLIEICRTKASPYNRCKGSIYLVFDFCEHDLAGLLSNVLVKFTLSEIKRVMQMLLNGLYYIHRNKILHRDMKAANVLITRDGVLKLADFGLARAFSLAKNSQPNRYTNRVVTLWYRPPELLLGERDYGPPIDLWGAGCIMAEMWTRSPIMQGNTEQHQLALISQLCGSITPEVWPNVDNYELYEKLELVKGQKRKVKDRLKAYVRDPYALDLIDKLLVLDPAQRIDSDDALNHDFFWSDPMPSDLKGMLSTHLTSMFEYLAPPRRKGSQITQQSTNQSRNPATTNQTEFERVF
CDK9/cyclin T1, sequence (O60563 whole entry partner): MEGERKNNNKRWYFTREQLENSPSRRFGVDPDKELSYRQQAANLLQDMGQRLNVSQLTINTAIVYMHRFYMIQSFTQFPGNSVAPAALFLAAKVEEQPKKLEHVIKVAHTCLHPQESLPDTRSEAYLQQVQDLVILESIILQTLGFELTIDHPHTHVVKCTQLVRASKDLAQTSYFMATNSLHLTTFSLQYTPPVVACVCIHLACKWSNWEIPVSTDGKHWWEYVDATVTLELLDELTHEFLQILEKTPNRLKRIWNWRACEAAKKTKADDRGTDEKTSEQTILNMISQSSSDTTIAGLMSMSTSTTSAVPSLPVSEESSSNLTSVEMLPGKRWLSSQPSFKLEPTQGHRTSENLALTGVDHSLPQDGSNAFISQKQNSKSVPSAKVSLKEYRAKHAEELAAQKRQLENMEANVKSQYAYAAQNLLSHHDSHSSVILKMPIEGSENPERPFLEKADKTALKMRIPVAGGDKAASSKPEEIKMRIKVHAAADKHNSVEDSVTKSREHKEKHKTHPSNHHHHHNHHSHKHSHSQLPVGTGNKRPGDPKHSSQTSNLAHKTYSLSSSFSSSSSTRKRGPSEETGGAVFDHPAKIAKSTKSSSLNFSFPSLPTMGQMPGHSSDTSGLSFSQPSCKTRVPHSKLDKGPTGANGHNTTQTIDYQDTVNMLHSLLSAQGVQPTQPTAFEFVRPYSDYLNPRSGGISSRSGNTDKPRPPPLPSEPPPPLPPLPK

As to `Cc1nc(N)sc1-c1ccnc(Nc2cccc(CNS(C)(=O)=O)c2)n1` [Compound 6, N-{3-[4-(2-Amino-4-methyl-thiazol-5-yl)-pyrimidin-2-ylamino]-benzyl}-methanesulfonamide], the IC50 was 50.1 nM in assay [1]; 398 nM in assay [2]; 200 nM in assay [3]; 126 nM in assay [4]; 7.94 nM in assay [5]; 100 nM in assay [6]. The IC50 in assay [7] was 126 nM; in assay [8], 1000 nM.
With `CNc1nc(C)c(-c2ccnc(Nc3cccc(N4CCNCC4)c3)n2)s1` [Compound 7, [4-(4-Methyl-2-methylamino-thiazol-5-yl)-pyrimidin-2-yl]-(3-piperazin-1-yl-phenyl)-amine], the IC50 in assay [1] was 12.6 nM; in assay [2] it was 2510 nM; in assay [3], 1000 nM; in assay [4], 631 nM; in assay [5], 200 nM; in assay [6], 398 nM. For the same compound, the IC50 was 200 nM in assay [7] and 3160 nM in assay [8].
Consider `CCNc1nc(C)c(-c2ccnc(Nc3ccc(CNC(C)=O)cc3)n2)s1` [Compound 13, N-{4-[4-(2-Ethylamino-4-methyl-thiazol-5-yl)-pyrimidin-2-ylamino]-benzyl}-acetamide], for which the IC50 in assay [1] was 31.6 nM; in assay [2] it was 126 nM; in assay [3] it was 63.1 nM; in assay [4], 200 nM; in assay [5], 25.1 nM; in assay [7] it was 15.8 nM. The IC50 in assay [8] is 631 nM.
Turning to `CCNc1nc(C)c(-c2ccnc(Nc3cccc(S(=O)(=O)NC)c3)n2)s1` [Compound 22, 3-[4-(2-Ethylamino-4-methyl-thiazol-5-yl)-pyrimidin-2-ylamino]-N-methyl-benzenesulfonamide], the IC50 in assay [1] is 79.4 nM; in assay [2], 794 nM; in assay [3], 200 nM; in assay [4] it was 100 nM; in assay [5], 39.8 nM; in assay [6], 100 nM. Also, the IC50 in assay [7] was 63.1 nM; in assay [8], 1000 nM.
Consider `CNc1nc(C)c(-c2ccnc(Nc3cccc(CC(=O)OCCOC)c3)n2)s1` [Compound 44, {3-[4-(4-Methyl-2-methylamino-thiazol-5-yl)-pyrimidin-2-ylamino]-phenyl}-acetic acid 2-methoxy-ethyl ester], for which the IC50 in assay [1] was 63.1 nM; in assay [2], 2000 nM; in assay [3], 2000 nM; in assay [4] it was 3160 nM; in assay [5], 251 nM; in assay [8], 2000 nM.
With `CNc1nc(C)c(-c2ccnc(Nc3cc(CO)cc(CO)c3)n2)s1` [Compound 48, {3-Hydroxymethyl-5-[4-(4-methyl-2-methylamino-thiazol-5-yl)-pyrimidin-2-ylamino]-phenyl}-methanol], the IC50 is 63.1 nM in assay [1]; 631 nM in assay [2]; 631 nM in assay [3]; 251 nM in assay [6]; 50.1 nM in assay [7]; 631 nM in assay [8].
`Cc1nc(C)c(-c2ccnc(Nc3cccc(CNS(C)(=O)=O)c3)n2)s1` [Compound 49, N-{3-[4-(2,4-Dimethyl-thiazol-5-yl)-pyrimidin-2-ylamino]-benzyl}-methanesulfonamide]: the IC50 in assay [1] is 200 nM; in assay [2], 158 nM; in assay [3], 1000 nM; in assay [5], 316 nM; in assay [6] it was 25.1 nM; in assay [7] it was 5.01 nM. The IC50 in assay [8] is 200 nM.
On to `CCNc1nc(C)c(-c2ccnc(Nc3ccc(N4CCN(C(C)=O)CC4)cc3)n2)s1` [Compound 58, 1-(4-{4-[4-(2-Ethylamino-4-methyl-thiazol-5-yl)-pyrimidin-2-ylamino]-phenyl}-piperazin-1-yl)-ethanone], for which the IC50 was 1000 nM in assay [2], 251 nM in assay [3], 631 nM in assay [6] and 5010 nM in assay [8].
Take `CCOC(=O)Cc1cccc(NS(=O)(=O)c2ccc(Nc3nccc(-c4sc(NC)nc4C)n3)cc2)c1` [Compound 62, (3-{4-[4-(4-Methyl-2-methylamino-thiazol-5-yl)-pyrimidin-2-ylamino]-benzenesulfonylamino}-phenyl)-acetic acid ethyl ester]: the IC50 is 3160 nM in assay [2], 6310 nM in assay [5] and 79.4 nM in assay [6].
In the case of `CCNc1nc(C)c(-c2ccnc(Nc3ccc(S(=O)(=O)NCc4ccccc4)cc3)n2)s1` [Compound 71, N-Benzyl-4-[4-(2-ethylamino-4-methyl-thiazol-5-yl)-pyrimidin-2-ylamino]-benzenesulfonamide], the IC50 in assay [2] was 3160 nM; in assay [3], 7940 nM; in assay [5] it was 398 nM; in assay [6], 631 nM.
With `CNc1nc(C)c(-c2ccnc(Nc3ccc(S(=O)(=O)NCc4ccccc4)cc3)n2)s1` [Compound 72, N-Benzyl-4-[4-(4-methyl-2-methylamino-thiazol-5-yl)-pyrimidin-2-ylamino]-benzenesulfonamide], the IC50 is 1260 nM in assay [2]; 6310 nM in assay [5]; 158 nM in assay [6]; 2510 nM in assay [7]; 794 nM in assay [8].
In the case of `Cc1nc(N)sc1-c1ccnc(Nc2ccc(S(=O)(=O)NCc3ccccc3)cc2)n1` [Compound 73, 4-[4-(2-Amino-4-methyl-thiazol-5-yl)-pyrimidin-2-ylamino]-N-benzyl-benzenesulfonamide], the IC50 in assay [2] was 39.8 nM; in assay [4], 1000 nM; in assay [5] it was 158 nM; in assay [6], 12.6 nM; in assay [7] it was 316 nM; in assay [8], 100 nM.
